Values of other authors, collected in patent US20230201385A1, “[…] OF BACTERIA AND VIRUSES” (MULTI-MAGNETICS INCORPORATED, priority 2020, published 2023).

Tests used:
[1] = dog, i.v.
[2] = system: Enterobacterales infections; conditions: murine models

| SMILES | Duration of acceptable bone visualization [1] | Mean standard uptake value (SUV) in bone ([1]; averaged over days 8-16) | Mean standard uptake value (SUV) in kidneys ([1]; averaged over days 8-16) | Mean standard uptake value (SUV) in liver ([1]; averaged over days 8-16) | Mean standard uptake value (SUV) in lungs ([1]; averaged over days 8-16) | Accumulation in cells (Enterobacterales) | Detection of infections by PET [2] |
| --- | --- | --- | --- | --- | --- | --- | --- |
| O=P([O-])([O-])O.O=P([O-])([O-])O.[89Zr+4] [^89Zr-phosphate] | 20 days | ~10 | ~3 | ~3 | ~3 | – | – |
| OC[C@@H](O)[C@@H](O)[C@H](O)[C@@H]([18F])CO [^18F-FDS, 2-Deoxy-2[^18F]fluoro-D-sorbitol] | – | – | – | – | – | accumulate in Enterobacterales but not in healthy mammalian or cancer cells | specifically detect Enterobacterales infections |
